# Results taken from patent publication US20260242419A1, “A CYCLIC PEPTIDE FOR TRAPPING INTERLEUKIN-1 BETA” (Merck Sharp & Dohme LLC, priority 2023, published 2026).
# Starred links: 1 amine or outer side, 2 acyl side, 3 side chain; linkers in the order of their positions; H or OH if unused. Non-standard residues stand in square brackets, D forms with d. Residues, ends and D or L forms follow the SMILES beside them. Trp(βS-Me,4-F) = C[C@@H](c1c[nH]c2cccc(F)c12)[C@H](N)C(=O)O; Bip(4'-COOH) = N[C@@H](Cc1ccc(-c2ccc(C(=O)O)cc2)cc1)C(=O)O; dPro(4R-Bzl(4-F)) = O=C(O)[C@H]1C[C@@H](Cc2ccc(F)cc2)CN1; X3 = CC(=O)NCCOc1ccc(C[C@H](N[*:1])C(=O)[*:2])cn1; Ala(pyrimidin-5-yl) = N[C@@H](Cc1cncnc1)C(=O)O; Phe(4-COOH) = N[C@@H](Cc1ccc(C(=O)O)cc1)C(=O)O; Pro(cis-4-F) = O=C(O)[C@@H]1C[C@H](F)CN1; AEF = NCCOc1ccc(C[C@H](N)C(=O)O)cc1; 4Pal = N[C@@H](Cc1ccncc1)C(=O)O; Orn = NCCC[C@H](N)C(=O)O; Dab = NCC[C@H](N)C(=O)O; Dap = NC[C@H](N)C(=O)O; Aib = CC(C)(N)C(=O)O
# Target: T1, IL-1β (Homo sapiens, UniProt P01584)
# T1 construct: purchased BioLegend 579404
# T1 sequence (P01584 117-269): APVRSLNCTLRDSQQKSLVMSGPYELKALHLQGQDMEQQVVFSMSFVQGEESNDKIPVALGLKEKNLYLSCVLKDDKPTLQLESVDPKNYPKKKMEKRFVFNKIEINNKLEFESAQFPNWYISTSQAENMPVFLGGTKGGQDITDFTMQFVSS
# Assay: IL-6 assay in MRC5 cells: inhibition of IL-1β induced IL-6 secretion (AlphaLISA)
# Assay type: cell-based
# Conditions: inhibition of IL-1β induced IL-6 secretion in MRC5 cells; read-out: MRC5 IC50
# Method: Procedure for IL-6 Assay in MRC5 Cells
# The inhibition of IL-1β induced IL-6 secretion was evaluated in MRC5 cells. Recombinant human IL-1β (BioLegend 579404) at 2λ EC80 concentration was prepared in seeding medium. EMEM (ATCC 30-2003) with 0.025% BSA (Sigma A9576), 1×penicillin/streptomycin (Gibco 15070-063), 1×NEAA (Gibco 11140-050), 1×GlutaMax (Gibco 35050-061), and 1×sodium pyruvate (Gibco 11360-070), 20 μL of IL-1β was added to a 384-well collagen-coated plate (Corning 354664) and pre-incubated at ambient temperature for 1 hour with 200 nL of compound dispensed using an ECHO 555 liquid handler. Human lung fibroblast MRC5 cells (ATCC CCL-171) were added at a density of 3000 cells/20 μL per well. The cells were prepared by passaging three times in growth medium, EMEM (ATCC 30-2003) with 10% fetal bovine serum (Gibco 16140-071), 1×penicillin/streptomycin (Gibco 15070-063), 1×NEAA (Gibco 11140-050), 1×GlutaMax (Gibco 35050-061), and 1×sodium pyruvate (Gibco 11360-070) in collagen-coated T175 flasks (Greiner 661950) and harvested in seeding medium after 5 minutes of 0.25% trypsin-EDTA (Gibco 25200-056) digestion. The 384-well collagen-coated plate, containing a final volume of 40 μL, was incubated at 37° C., 5% CO2 overnight. 5 μL of the conditioned medium was transferred to a 384-well AlphaLISA plate (PerkinElmer 6005350) for detection of IL-6 using the human AlphaLISA IL-6 kit (PerkinElmer AL223F) as per the manufacturer's protocol. 20 μL of the acceptor bead/biotinylated antibody mix was added to the 384-well AlphaLISA plate and incubated for 1 hour at ambient temperature. The donor bead mix was protected from light and 25 μL was added to the plate and incubated for 30 minutes at ambient temperature. The AlphaLISA plate was read on an EnVision multimode plate reader (Perkin Elmer model 2104) using the AlphaScreen setting (laser exc at 680 nm and emis at […]). Dose response curves and IC50 values were analyzed using a 4-parameter logistic equation in Spotfire software (Tibco, Palo Alto, CA).
row,SMILES,IC50
1,"C[C@@H](c1c[nH]c2cccc(F)c12)[C@@H]1NC(=O)[C@@H]2C[C@H](F)CN2C(=O)CNC(=O)[C@H](Cc2ccc(C(=O)O)cc2)NC(=O)[C@H](Cc2ccncc2)NC(=O)[C@H](Cc2ccc(-c3ccc(C(=O)O)cc3)cc2)NC(=O)[C@H]2C[C@@H](Cc3ccc(F)cc3)CN2C(=O)CNC(=O)[C@H](CO)NC(=O)[C@H](CCC(N)=O)NC(=O)[C@H](Cc2cncnc2)NC(=O)C(C)(C)NC(=O)[C@H](Cc2c[nH]c3ccccc23)NC(=O)[C@H](CCC(=O)O)NC(=O)C(C)(C)NC1=O [Example 3] (cyclo([Bip(4'-COOH)][4Pal][Phe(4-COOH)]G[Pro(cis-4-F)][Trp(βS-Me,4-F)][Aib]EW[Aib][Ala(pyrimidin-5-yl)]QSG[dPro(4R-Bzl(4-F))]))",0.037 nM
2,"C[C@@H](c1c[nH]c2cccc(F)c12)[C@@H]1NC(=O)[C@@H]2C[C@H](F)CN2C(=O)CNC(=O)[C@H](Cc2ccc(C(=O)O)cc2)NC(=O)[C@H](Cc2ccncc2)NC(=O)[C@H](Cc2ccc(-c3ccc(C(=O)O)cc3)cc2)NC(=O)[C@H]2C[C@@H](Cc3ccc(F)cc3)CN2C(=O)CNC(=O)[C@H](CCN)NC(=O)[C@H](CCC(N)=O)NC(=O)[C@H](Cc2cncnc2)NC(=O)C(C)(C)NC(=O)[C@H](Cc2c[nH]c3ccccc23)NC(=O)[C@H](CCC(=O)O)NC(=O)C(C)(C)NC1=O [Example 4] (cyclo([Bip(4'-COOH)][4Pal][Phe(4-COOH)]G[Pro(cis-4-F)][Trp(βS-Me,4-F)][Aib]EW[Aib][Ala(pyrimidin-5-yl)]Q[Dab]G[dPro(4R-Bzl(4-F))]))",0.031 nM
3,"C[C@@H](c1c[nH]c2cccc(F)c12)[C@@H]1NC(=O)[C@@H]2C[C@H](F)CN2C(=O)CNC(=O)[C@H](Cc2ccc(C(=O)O)cc2)NC(=O)[C@H](Cc2ccncc2)NC(=O)[C@H](Cc2ccc(-c3ccc(C(=O)O)cc3)cc2)NC(=O)[C@H]2C[C@@H](Cc3ccc(F)cc3)CN2C(=O)CNC(=O)[C@H](CCN)NC(=O)[C@H](CCC(N)=O)NC(=O)[C@H](CO)NC(=O)C(C)(C)NC(=O)[C@H](Cc2c[nH]c3ccccc23)NC(=O)[C@H](CO)NC(=O)C(C)(C)NC1=O [Example 5] (cyclo([Bip(4'-COOH)][4Pal][Phe(4-COOH)]G[Pro(cis-4-F)][Trp(βS-Me,4-F)][Aib]SW[Aib]SQ[Dab]G[dPro(4R-Bzl(4-F))]))",0.039 nM
4,"C[C@@H](c1c[nH]c2cccc(F)c12)[C@@H]1NC(=O)[C@@H]2C[C@H](F)CN2C(=O)CNC(=O)[C@H](Cc2ccc(C(=O)O)cc2)NC(=O)[C@H](Cc2ccncc2)NC(=O)[C@H](Cc2ccc(-c3ccc(C(=O)O)cc3)cc2)NC(=O)[C@H]2C[C@@H](Cc3ccc(F)cc3)CN2C(=O)CNC(=O)[C@H](CCCCN)NC(=O)[C@H](CCC(N)=O)NC(=O)[C@H](Cc2cncnc2)NC(=O)C(C)(C)NC(=O)[C@H](Cc2c[nH]c3ccccc23)NC(=O)[C@H](CCC(=O)O)NC(=O)C(C)(C)NC1=O [Example 9] (cyclo([Bip(4'-COOH)][4Pal][Phe(4-COOH)]G[Pro(cis-4-F)][Trp(βS-Me,4-F)][Aib]EW[Aib][Ala(pyrimidin-5-yl)]QKG[dPro(4R-Bzl(4-F))]))",0.028 nM
5,"CC(=O)NCCOc1ccc(C[C@@H]2NC(=O)[C@H]3C[C@@H](Cc4ccc(F)cc4)CN3C(=O)CNC(=O)[C@H](CCN)NC(=O)[C@H](CCC(N)=O)NC(=O)[C@H](Cc3cncnc3)NC(=O)C(C)(C)NC(=O)[C@H](Cc3c[nH]c4ccccc34)NC(=O)[C@H](CCC(=O)O)NC(=O)C(C)(C)NC(=O)[C@H]([C@@H](C)c3c[nH]c4cccc(F)c34)NC(=O)[C@@H]3C[C@H](F)CN3C(=O)CNC(=O)[C@H](Cc3ccc(C(=O)O)cc3)NC(=O)[C@H](Cc3ccncc3)NC2=O)cc1 [Example 10] (cyclo([AEF](Ac)[4Pal][Phe(4-COOH)]G[Pro(cis-4-F)][Trp(βS-Me,4-F)][Aib]EW[Aib][Ala(pyrimidin-5-yl)]Q[Dab]G[dPro(4R-Bzl(4-F))]))",0.027 nM
6,"CC(=O)NCCOc1ccc(C[C@@H]2NC(=O)[C@H]3C[C@@H](Cc4ccc(F)cc4)CN3C(=O)CNC(=O)[C@H](CN)NC(=O)[C@H](CCC(N)=O)NC(=O)[C@H](Cc3cncnc3)NC(=O)C(C)(C)NC(=O)[C@H](Cc3c[nH]c4ccccc34)NC(=O)[C@H](CCC(=O)O)NC(=O)C(C)(C)NC(=O)[C@H]([C@@H](C)c3c[nH]c4cccc(F)c34)NC(=O)[C@@H]3C[C@H](F)CN3C(=O)CNC(=O)[C@H](Cc3ccc(C(=O)O)cc3)NC(=O)[C@H](Cc3ccncc3)NC2=O)cc1 [Example 11] (cyclo([AEF](Ac)[4Pal][Phe(4-COOH)]G[Pro(cis-4-F)][Trp(βS-Me,4-F)][Aib]EW[Aib][Ala(pyrimidin-5-yl)]Q[Dap]G[dPro(4R-Bzl(4-F))]))",0.045 nM
7,"CC(=O)NCCOc1ccc(C[C@@H]2NC(=O)[C@H]3C[C@@H](Cc4ccc(F)cc4)CN3C(=O)CNC(=O)[C@H](CCN)NC(=O)[C@H](CCC(N)=O)NC(=O)[C@H](Cc3cncnc3)NC(=O)C(C)(C)NC(=O)[C@H](Cc3c[nH]c4ccccc34)NC(=O)[C@H](CCC(=O)O)NC(=O)C(C)(C)NC(=O)[C@H]([C@@H](C)c3c[nH]c4cccc(F)c34)NC(=O)[C@@H]3C[C@H](F)CN3C(=O)CNC(=O)[C@H](Cc3ccc(C(=O)O)cc3)NC(=O)[C@H](Cc3ccncc3)NC2=O)cn1 [Example 12] (cyclo([X3][4Pal][Phe(4-COOH)]G[Pro(cis-4-F)][Trp(βS-Me,4-F)][Aib]EW[Aib][Ala(pyrimidin-5-yl)]Q[Dab]G[dPro(4R-Bzl(4-F))]))",0.072 nM

# Molecules with a lower IC50, results first:
row,IC50,SMILES
1,0.023 nM,"C[C@@H](c1c[nH]c2cccc(F)c12)[C@@H]1NC(=O)[C@@H]2C[C@H](F)CN2C(=O)CNC(=O)[C@H](Cc2ccc(C(=O)O)cc2)NC(=O)[C@H](Cc2ccncc2)NC(=O)[C@H](Cc2ccc(-c3ccc(C(=O)O)cc3)cc2)NC(=O)[C@H]2C[C@@H](Cc3ccc(F)cc3)CN2C(=O)CNC(=O)[C@H](CCN)NC(=O)[C@H](CCC(N)=O)NC(=O)[C@H](Cc2ccncc2)NC(=O)C(C)(C)NC(=O)[C@H](Cc2c[nH]c3ccccc23)NC(=O)[C@H](CCC(=O)O)NC(=O)C(C)(C)NC1=O [Example 2] (cyclo([Bip(4'-COOH)][4Pal][Phe(4-COOH)]G[Pro(cis-4-F)][Trp(βS-Me,4-F)][Aib]EW[Aib][4Pal]Q[Dab]G[dPro(4R-Bzl(4-F))]))"
2,0.026 nM,"C[C@@H](c1c[nH]c2cccc(F)c12)[C@@H]1NC(=O)[C@@H]2C[C@H](F)CN2C(=O)CNC(=O)[C@H](Cc2ccc(C(=O)O)cc2)NC(=O)[C@H](Cc2ccncc2)NC(=O)[C@H](Cc2ccc(-c3ccc(C(=O)O)cc3)cc2)NC(=O)[C@H]2C[C@@H](Cc3ccc(F)cc3)CN2C(=O)CNC(=O)[C@H](CN)NC(=O)[C@H](CCC(N)=O)NC(=O)[C@H](Cc2cncnc2)NC(=O)C(C)(C)NC(=O)[C@H](Cc2c[nH]c3ccccc23)NC(=O)[C@H](CCC(=O)O)NC(=O)C(C)(C)NC1=O [Example 7] (cyclo([Bip(4'-COOH)][4Pal][Phe(4-COOH)]G[Pro(cis-4-F)][Trp(βS-Me,4-F)][Aib]EW[Aib][Ala(pyrimidin-5-yl)]Q[Dap]G[dPro(4R-Bzl(4-F))]))"
3,0.026 nM,"C[C@@H](c1c[nH]c2cccc(F)c12)[C@@H]1NC(=O)[C@@H]2C[C@H](F)CN2C(=O)CNC(=O)[C@H](Cc2ccc(C(=O)O)cc2)NC(=O)[C@H](Cc2ccncc2)NC(=O)[C@H](Cc2ccc(-c3ccc(C(=O)O)cc3)cc2)NC(=O)[C@H]2C[C@@H](Cc3ccc(F)cc3)CN2C(=O)CNC(=O)[C@H](CCCN)NC(=O)[C@H](CCC(N)=O)NC(=O)[C@H](Cc2cncnc2)NC(=O)C(C)(C)NC(=O)[C@H](Cc2c[nH]c3ccccc23)NC(=O)[C@H](CCC(=O)O)NC(=O)C(C)(C)NC1=O [Example 8] (cyclo([Bip(4'-COOH)][4Pal][Phe(4-COOH)]G[Pro(cis-4-F)][Trp(βS-Me,4-F)][Aib]EW[Aib][Ala(pyrimidin-5-yl)]Q[Orn]G[dPro(4R-Bzl(4-F))]))"
